From US10947260B2, “Phosphinolactone derivatives and pharmaceutical uses thereof” (INSTITUT NATIONAL DE LA SANTE ET DE LA RECHERCHE MEDICALE …, priority 2016, dated 2021)

Assays:
APPSwe mice = assay: Biochemical analyses in hippocampus of APPSwe mice; format: in vivo; settings: 1 mg/kg/j IP
Protocol: FIG. 12: Biochemical analyses of the effect of treatments with compound 3b (a) or 3c (b) in the hippocampus of APPSwe mice. Oxidative stress was measured via the level of peroxidation of membrane lipids at (a), or DCF fluorescence at (b). The expression levels of synaptophysin, Bax, IL1β and TNFα were measured using commercial Elisa kits. The values are given as % of the control group WT/V. N=6-8 per group. *p<0.05, **p<0.01 compared with group WT/V; #p<0.05, ##p<0.01 compared with group APPSwe/V; Student t-test.
After sacrifice, the hippocampus and brain cortex of the mice were dissected and frozen to −80° C. until use. The accumulation of reactive oxygen species was measured by fluorescence of 2′,7′-dichlorofluorescein (DCF) in the hippocampus of the mice ex vivo. DCF diacetate (0.5 μM) (Sigma-Aldrich) was added to SDS-soluble fractions of hippocampus extract. After 30 min at 37° C., DCF fluorescence was quantified (excitation at 485 nm, emission at 530 nm) in a Fluoroskan Ascent spectrofluorometer (Thermo Scientific, Waltham, USA), and normalized with the protein concentrations of the extracts.
Peroxidation of membrane lipids was measured using the cumene/xylenol method. The hippocampi were homogenized in methanol (1:10), centrifuged at 1 000 g for 5 min and the supernatant collected. Aliquots were added to a solution containing 1 mM FeSO4, 0.25 m H2SO4, 1 mM xylenol orange and incubated for 30 min at ambient temperature. Absorbance was measured at 580 nm (A5801), then 10 μl of 1 mM cumene hydroperoxide (CHP) was added and the sample incubated 30 min at ambient temperature. Absorbance was measured at 580 nm (A5802). Lipid peroxidation level was determined as CHP equivalents: CHP eq.=A5801/A5802×[CHP (nmol)]×dilution, and calculated in CHP eq. per tissue weight expressed as % of the control group.
Various biochemical parameters were analysed in the hippocampus of APPSwe mice after treatments with 3b, 2 mg/kg/j IP, or 3c, 1 mg/kg/j IP (FIG. 12).

[1] = tested on: mice treated with Aβ25-35; assay: Passive avoidance test, Aβ25-35 model; format: in vivo; settings: 0.1 and 0.3 mg/kg IP; Days 8 and 9
Protocol: The amyloid-β[25-35] peptide (Aβ25-35) and control peptide (Sc.Aβ) were obtained from Genepep (Saint-Jean-de-Vedas, France). They were solubilized in injectable distilled water at a concentration of 3 mg/ml and stored at −20° C. Before injection, the peptides were incubated at 37° C. for 4 days, which enabled the Aβ25-35 peptide but not the Sc.Aβ, to form oligomers. They were administered via intracerebroventricular route (ICV). The animals were anesthetized by inhaling 2.5% isoflurane (TEM) and were given 3 μl of peptide solution via direct ICV route (Haley and McCormick's method). For injection a 10 μl Hamilton micro-syringe was used at a flow rate of 1 μl/min.
The apparatus contained two compartments (15×20×15 cm in height) with one light part having walls in white PVC and the other dark with walls in black PVC and a grid floor. A vertical sliding door separated each compartment. A 60 W lamp was positioned 40 cm above the white compartment during the experiment. Electrical shocks (0.3 mA for 3 s) were delivered to the grid floor by means of a scrambled shock generator (Lafayette Instruments, Lafayette, United States). The vertical sliding door was first closed during the training session. […] Step-through latency (STL) i.e. the time taken to enter the dark compartment and the number of cries, were recorded. […] Step-through latency was recorded up to 300 s. […]

[2] = tested on: mice treated with Aβ25-35
Protocol: The hippocampi were homogenized in 50 mM Tris-150 mM NaCl solution, pH 7.5, and sonicated for 20 s. After centrifugation at 16 100 g for 15 min at 4° C., the supernatants were used for ELISA assays in accordance with the manufacturer's instructions (ThermoScientific, Courtaboeuf, France; USCN, Wuhan, China). For each assay, absorbance was read at 450 nm and the concentration of each sample calculated in comparison with a standard curve. The results are expressed in ng or pg per mg of tissue and expressed as % of the control group.
On Day 9, the animals were sacrificed, the brains removed, the hippocampi and cortex dissected and frozen.

[3] = 1.5 mg/kg IP, control ScAβ animals

Row | Compound | IL1β level, hippocampus (APPSwe mice) | expression of Bax, hippocampus (APPSwe mice) | oxidative stress (DCF fluorescence), hippocampus (APPSwe mice) | synaptophysin level, hippocampus (APPSwe mice) | long-term memory response (passive avoidance step-through latency) [1] | Bax in control animals ScAβ [2, 3] | Bax/Bcl2 ratio in control animals ScAβ [2, 3] | Bcl2 levels ([2]; 0.3-1.5 mg/kg IP)
1 | CC1(C)COP(=O)(c2ccc(Cl)cc2)C(C)(C)N1 (racemic) [Compound 3c, (±)-2-(4-Chlorophenyl)-2-oxo-3,3,5,5-tetramethyl-[1,4,2]-oxazaphosphinane] | not | caused a decrease | not | not | appeared effective | – | – | –
2 | CC1(C)COP(=O)(c2cccc(Cl)c2)C(C)(C)N1 (racemic) [Compound 3b, (±)-2-(3-Chlorophenyl)-2-oxo-3,3,5,5-tetramethyl-[1,4,2]-oxazaphosphinane] | – | – | – | – | – | tends to increase Bax | tends to increase | no effect
